| Structure (SMILES) | melting point [°C] |
| --- | --- |
| CCOC(=O)C(Cc1cccc2ccccc12)(Cc1cccc2ccccc12)C(=O)OCC | 79 to 81 |
| Cn1c(-c2ccc(-n3ccnc3)cc2)cnc1[C@H](Cc1ccccn1)N(C=O)c1cc2cc(Cl)ccc2o1 | 63 to 73 |
| CN(CCNc1ncc(Cc2ccc(Cl)cc2)c(=O)[nH]1)c1ccccn1 | 172 to 174 |
| O=C(c1ccccc1)c1cc(-c2ccccc2)c(OS(=O)(=O)c2ccc(C(=O)O)c(O)c2)c(-c2ccccc2)c1 | 217 |
| CC(C)(C)c1cc(CN(c2cccnc2)S(C)(=O)=O)cc(C(C)(C)C)c1O | 133 to 134 |
| COc1ccc2c(c1Br)CCC1C(=O)N(C)C(=O)C21 (configuration not stated) | 196 to 199 |
| COC(=O)/C=C/c1ccc2c(c1)C(C)(C)CC(=O)N2 | 174 to 175 |
| O=C1c2sccc2-n2cnc(Cl)c2[C@@H]2CCCN12 | 180 to 183 |
| Fc1ccc(CNc2ccc(-n3nc(C(F)(F)F)cc3C(F)(F)F)cc2)cc1 | 92 to 94 |
| CCCc1c(OCCCSc2ccc(C(C)=O)c(OCCCC(=O)OCC)c2CCC)ccc(C(C)=O)c1O | 87 to 88 |
| COC(=O)C1=C(C)NC(c2csc(C)n2)=NC1c1ccc(F)cc1Cl (configuration not stated) | 128 to 130 |
| CCCCc1nn(-c2ccccc2C(F)(F)F)c(=O)n1Cc1ccc(-c2ccccc2S(=O)(=O)NC(=O)C(F)(F)F)cc1 | 125 to 127 |
| CC(C)c1noc(-c2c(Cl)ccc(C(=O)O)c2Cl)n1 | 104 to 107 |
| COc1ccc(N2CCOCC2)c2sc(-c3nc4ccc(N(C)C)nc4[nH]3)nc12 | 120 to 130 |
| CC(C)c1nc(CCCO)n(Cc2ccncc2)c1Sc1cc(Cl)cc(Cl)c1 | 106 to 107 |
| COc1cc(F)ccc1-c1ccc(S(=O)(=O)N2c3ccccc3CC2C(=O)NCc2ccccc2NCCC(=O)O)cc1 (configuration not stated) | 121 to 125 |
| CCOC(Cc1cnc2ccc(OCc3ccc([N+](=O)[O-])cc3)cc2c1)C(=O)O (configuration not stated) | 169 to 174 |
| O=C1Cc2cccc(Nc3ccccc3)c2N1 | 166 to 168 |
| N#CC(C(=O)Nc1ccccc1)C(=O)c1nn(-c2ccccc2)c2c1COc1ccccc1-2 (configuration not stated) | 280 to 282 |
| O=C1CCC(N2Cc3c(OCc4ccc(CN5CCC(c6ccncc6)CC5)cc4)cccc3C2=O)C(=O)N1 (configuration not stated) | 198 to 200 |
| CCc1cc(OCc2ccc(-c3ccccc3-c3nnn(C(c4ccccc4)(c4ccccc4)c4ccccc4)n3)cc2)c2c(n1)CCCCC2 | 147 to 148 |
| O=C(O)CNC(=O)CCCCc1ccccc1 | 93 to 96 |
| CCOC(=O)c1ccc2cc(I)ccc2n1 | 119 to 121 |
| COc1ccc(C(=O)Nc2ccncc2)c2c1oc1ccccc12 | 215 |
| CC(=O)c1ccc(OC2CCN(C(=O)OC(C)(C)C)CC2)cc1F | 72 to 73 |

| Structure (SMILES) | melting point [°C] |
| --- | --- |
| Cc1ccc(-c2ccc(O)cc2)c(-c2ccc(OCCN3CCCC3)cc2)n1 | 159 to 161 |
| CCOC(=O)c1cnc2c([N+](=O)[O-])cccc2c1N(C)C | 76 to 77 |
| O=C1CCCC2=C1C(c1ccc(Br)s1)C1=C(CCS1)N2 (configuration not stated) | > 250 |
| O=C1c2cccc(NC(=S)Nc3cc[nH]n3)c2C2CCCCN12 (configuration not stated) | 208 |
| Cc1cccc2c(Cl)cc(C(F)(F)Cl)nc12 | 46 to 48 |
| CCOC1CC2(C)C(CCC3C4CCC(CC)C4(C)CC(N(C)C)C32)CC1O (configuration not stated) | 57 to 59 |
| CC(C)C(=O)Oc1ccc(C(=O)c2ccc(OC(=O)C(C)C)cc2)cc1 | 144 |
| Fc1cc(F)c(N=C2NCCN2)c(F)c1F | 167 to 168 |
| COCCc1sc2ncnc(N)c2c1-c1ccc(NS(=O)(=O)c2ccccc2)cc1 | 206 to 208 |
| O=C1N=Nc2ccncc21 | > 350 |
| CC(C)OP(=O)(OC(C)C)C(Nc1ccccn1)P(=O)(OC(C)C)OC(C)C | 98 to 100 |
| CN1CC(CCCl)Oc2cc3ccccc3cc2C1=S (configuration not stated) | 166 to 168 |
| CN1CCCc2cc(Cc3cnc(N)nc3N)ccc21 | 190 to 191 |
| O=C(Nc1cnc(-n2nc(C(F)(F)F)cc2C2CC2)nc1)c1c(F)cccc1F | 280 to 281 |
| C=C(C)C(=O)Nc1ccc(NC(=O)Nc2ccc(C#N)cc2)c(O)c1 | 247 to 249 |
| Cc1ccc(S(=O)(=O)N2CCNC2=Nc2ccccc2)cc1 | 174 to 177 |
| CCOc1ccc(-c2ccc(OC(CC)CCN3CCN(c4cncs4)CC3)cc2)cc1 (configuration not stated) | 149 to 150 |
| Oc1cccc(CCc2cc(-c3ccccc3)n(-c3ccccc3)n2)c1 | 211 to 212 |
| CN1CCN(c2cccc3ccc(C(O)c4ccccc4)cc23)CC1 (configuration not stated) | 162 to 163 |
| Cc1ccc(CCN2CCN(c3noc4ccccc34)CC2)c2c1C(C)(C)CCN2 | 135 |
| CC(C)(C)Nc1c[nH]c2ccccc12 | 137 to 142 |
| O=C(NCc1cccc([N+](=O)[O-])c1)c1[nH]c2ccc(Cl)cc2c1S(=O)(=O)c1ccccc1 | 253 to 254 |
| COC(=O)[C@H](Cc1cc(Cl)c(Oc2ccc3cc(OC)ccc3c2)c(Cl)c1)NC(=O)C(F)(F)F | 188 to 189 |
| OCCN1CCC(Nc2nc3ccccc3n2Cc2ccc(F)cc2)CC1 | 139 |
| COc1ccc2[nH]cc(-c3cc4c(-c5c(C)noc5C)ccnc4[nH]3)c2c1 | 270 to 271 |

| Structure (SMILES) | melting point [°C] |
| --- | --- |
| CCOC(=O)c1cc(-c2ccccc2)n(-c2cccc(C(N)=O)c2)c1C | 238 to 239 |
| Brc1cc(Br)c(CSCc2cc(Br)c(Br)cc2Br)cc1Br | 173 to 175 |
| Cc1nc2sc(S(=O)(=O)Cl)cc2c(=O)n1-c1ccccc1Cl | 172 to 174 |
| COc1ccc2c3c(oc2c1)CC(C(=O)O)CC3 (configuration not stated) | 175 to 180 |
| CCOc1ccc(C2=NN(Cc3ccccc3)C(=O)[C@H]3CCCC[C@@H]23)cc1OCC (relative stereo) | 91 to 92 |
| NS(=O)(=O)c1cccc(C(=O)C(F)(F)F)c1 | 88.4 to 89.1 |
| O=C(N[C@H]1CC[C@H](CCN2CCN(c3nccc4c3OCC4)CC2)CC1)c1ccc(N2CCCCC2)cc1 | 182 |
| NC(=O)C1(c2ccccc2)OC(=O)c2ccccc21 (configuration not stated) | 225 to 227 |
| CCCOc1ccc(OCCCCC(=O)O)c(C=O)c1O | 78 to 79 |
| CCOC(=O)c1cc2c(Cl)ccc3c2n1CCCC=C3 | 89 to 90 |
| CN(C(=O)COc1nc2c(F)cccc2s1)c1ccccc1 | 94 |
| CCCCCCCCCCCCCCCCNC(=O)c1cc(OCCN=C=S)c2ccccc2c1O | 90 to 91 |
| CN(C(CCn1c(=O)[nH]c2ncccc2c1=O)C(=O)NO)S(=O)(=O)c1ccc(Oc2ccccc2)cc1 (configuration not stated) | 125 to 126 |
| COc1ccccc1CS(=O)(=O)Cc1ccccc1OC | 90 to 92 |
| O=S(=O)(Cl)c1ccc(Cl)c(CBr)c1Cl | 90 to 92 |
| Cc1cc(C(=O)c2ccccc2)c(-n2c(C)nnc2CNC(=O)c2cc3ccccc3[nH]2)s1 | 231 to 233 |
| O=[N+]([O-])c1oc2ccc(CN3CCN(c4ccccc4)CC3)cc2c1-c1ccccc1 | 155 to 157 |
| CS(=O)(=O)CCCC1(C(=O)O)CCC1 | 113 to 116 |
| CC(CC(=O)O)CC(=O)Nc1ccc(Cl)cc1 (configuration not stated) | 116 to 118 |
| CCN(CC)c1ccc(NC(=O)c2cnn(-c3ccc(F)cc3)c2C)cc1C#N | 135 to 136 |
| N#Cc1ccc(N(Cc2ccc(O)cc2)n2cnnc2)cc1 | 228 to 230 |
| CCCN(Cc1ccc(C(=O)N2CCN(c3ccccc3)CC2)cc1)C1CCc2ncsc2C1 (configuration not stated) | 70 |
| COc1ccc2[nH]c3c(c2c1)C[C@@]1(C)C(=O)N(CCBr)C(=O)N1[C@@H]3c1cccc(O)c1 (racemic) | 299 to 302 |
| Cc1cc(OCc2ccc(-c3ccc(C(F)(F)F)cc3)nn2)ccc1OC(C)(C)C(=O)O | 191 to 192 |
| Nc1cccc2c1Cc1cccc(N)c1C2 | 179 |

| Structure (SMILES) | melting point [°C] |
| --- | --- |
| COc1ccc(-c2ocnc2-c2cc(OC)c(OC)c(OC)c2)cc1F | 139 to 140 |
| Cc1ccc(Oc2ccc(Oc3ccc(C)c(C)c3)cc2)cc1C | 106 |
| COc1ccc(-c2oc(CCCCCc3nnn[nH]3)nc2-c2ccc(Cl)cc2)cc1 | 160 |
| Cc1cc(NC(=O)c2cccc(CSc3ncnc4[nH]ncc34)c2)ccc1C(C)C | 187 to 189 |
| O=C(O)COc1cc(F)ccc1C(=S)NCc1cccc([N+](=O)[O-])c1 | 147 to 150 |
| Nc1nc2ccccc2c2c1ncn2CC1(O)CCOCC1 | 260 to 262 |
| Oc1ccccc1C=Cc1nc2ccccc2s1 | 235 to 236 |
| COc1ccc(-c2nn(CC(C)C)c(=O)cc2-c2ccc(OC)c(F)c2)cc1 | 125 |
| CSc1sc(C(=O)N2CCCCCC2)c2c1-c1oncc1C(C)(C)C2 | 99 to 101 |
| CCCCn1cc(C2CCN(CCOc3ccccc3C(=O)O)CC2)c2ccncc21 | 158 to 159 |
| CC(=O)NC(C)(C)Cc1ccc(N(C)C)cc1 | 156 to 157 |
| CC(=O)Nc1ccc(S(=O)(=O)Nc2cc(C)c(S(=O)(=O)C[N+](=O)[O-])c(C)c2)cc1 | 209 to 210 |
| Cc1cccc(S(=O)(=O)Nc2cc(C)c(S(=O)(=O)C[N+](=O)[O-])c(C)c2)c1 | 179 to 181 |
| O=C(c1cccc(C(F)(F)F)c1)c1cc2cccc(Br)c2s1 | 135 to 136 |
| COc1cc2c(c3c1OC(C)(C)C3)C(c1cccc(N(C)C(N)=O)c1)=NC(C)(C)C2 | 108 to 109 |
| COCCC(=O)N[C@H]1CC[C@H](CCN2CCN(c3nc(C)cc4occc34)CC2)CC1 | 158 |
| C=CCN1CCc2nc(NCC)nc(-c3ccc(Cl)cc3)c2C1 | 104 to 106 |
| CC1COCc2nc3c(N)nc4cc(C=CC(=O)N5CCOCC5)ccc4c3n21 (configuration not stated) | > 250 |
| O=C1CSCC(C(=O)O)N1 (configuration not stated) | 152 to 153 |
| CCCc1ccc2c(=O)cc(C(=O)O)[nH]c2c1 | > 240 |
| CCN(CC)N(C(C)=O)c1nc2cc3nc(N)sc3cc2s1 | 203 to 205 |
| CCOC(=O)C(=NOC(CC)C(=O)O)c1csc(NC(c2ccccc2)(c2ccccc2)c2ccccc2)n1 (configuration not stated) | 154 |
